Results published in US20230210831A1, “CHRONIC KIDNEY DISEASE TREATMENT OR PREVENTION METHOD” (Japan Tobacco Inc., priority 2019, published 2023).

Assays:
Format in all cases: cell-based
[1] = test system: Salmonella typhimurium TA98; test: Ames test (reverse mutation test), TA98
Procedure: (§1) The solvent used herein was dimethyl sulfoxide (DMSO, 100 µL/plate).
(§2) The mixtures were preincubated at 37° C. for 20 minutes while shaking. […] Two plates per treatment were used.

[2] = test system: Salmonella typhimurium TA1537; test: Ames test (reverse mutation test), TA1537
Procedure: as §1, §2

[3] = test system: Salmonella typhimurium TA100; test: Ames test (reverse mutation test), TA100
Procedure: as §1, §2

[4] = test system: Salmonella typhimurium TA1535; test: Ames test (reverse mutation test), TA1535
Procedure: as §1, §2

Escherichia coli WP2uvrA = test: Ames test (reverse mutation test), WP2uvrA
Procedure: as §1, §2

## Nc1cc(-c2cccc(OC(F)(F)F)c2)n(-c2cccc(F)c2)n1 [Metabolite G]
[1]; S9 Mix +, dose 2.3 µg/plate
  Number of revertant colonies TA98: 35
[1]; S9 Mix +, dose 6.9 µg/plate
  Number of revertant colonies TA98: 63
[1]; S9 Mix +, dose 21 µg/plate
  Number of revertant colonies TA98: 76
[1]; S9 Mix +, dose 62 µg/plate
  Number of revertant colonies TA98: 75
[1]; S9 Mix +, dose 185 µg/plate
  Number of revertant colonies TA98: 45
[1]; S9 Mix +, dose 556 µg/plate
  Number of revertant colonies TA98: 12
[1]; S9 Mix +, dose 1667 µg/plate
  Number of revertant colonies TA98: 11
[1]; S9 Mix +, dose 5000 µg/plate
  Number of revertant colonies TA98: 0
[1]; S9 Mix -, dose 2.3 µg/plate
  Number of revertant colonies TA98: 31
[1]; S9 Mix -, dose 6.9 µg/plate
  Number of revertant colonies TA98: 30
[1]; S9 Mix -, dose 21 µg/plate
  Number of revertant colonies TA98: 31
[1]; S9 Mix -, dose 62 µg/plate
  Number of revertant colonies TA98: 30
[1]; S9 Mix -, dose 185 µg/plate
  Number of revertant colonies TA98: 13
[1]; S9 Mix -, dose 556 µg/plate
  Number of revertant colonies TA98: 15
[1]; S9 Mix -, dose 1667 µg/plate
  Number of revertant colonies TA98: 8
[1]; S9 Mix -, dose 5000 µg/plate
  Number of revertant colonies TA98: 0
[2]; S9 Mix +, dose 2.3 µg/plate
  Number of revertant colonies TA1537: 13
[2]; S9 Mix +, dose 6.9 µg/plate
  Number of revertant colonies TA1537: 13
[2]; S9 Mix +, dose 21 µg/plate
  Number of revertant colonies TA1537: 16
[2]; S9 Mix +, dose 62 µg/plate
  Number of revertant colonies TA1537: 15
[2]; S9 Mix +, dose 185 µg/plate
  Number of revertant colonies TA1537: 13
[2]; S9 Mix +, dose 556 µg/plate
  Number of revertant colonies TA1537: 0
[2]; S9 Mix +, dose 1667 µg/plate
  Number of revertant colonies TA1537: 0
[2]; S9 Mix +, dose 5000 µg/plate
  Number of revertant colonies TA1537: 0
[2]; S9 Mix -, dose 2.3 µg/plate
  Number of revertant colonies TA1537: 15
[2]; S9 Mix -, dose 6.9 µg/plate
  Number of revertant colonies TA1537: 15
[2]; S9 Mix -, dose 21 µg/plate
  Number of revertant colonies TA1537: 17
[2]; S9 Mix -, dose 62 µg/plate
  Number of revertant colonies TA1537: 7
[2]; S9 Mix -, dose 185 µg/plate
  Number of revertant colonies TA1537: 0
[2]; S9 Mix -, dose 556 µg/plate
  Number of revertant colonies TA1537: 0
[2]; S9 Mix -, dose 1667 µg/plate
  Number of revertant colonies TA1537: 0
[2]; S9 Mix -, dose 5000 µg/plate
  Number of revertant colonies TA1537: 0
[3]; S9 Mix +, dose 2.3 µg/plate
  Number of revertant colonies TA100: 153
[3]; S9 Mix +, dose 6.9 µg/plate
  Number of revertant colonies TA100: 248
[3]; S9 Mix +, dose 21 µg/plate
  Number of revertant colonies TA100: 506
[3]; S9 Mix +, dose 62 µg/plate
  Number of revertant colonies TA100: 630
[3]; S9 Mix +, dose 185 µg/plate
  Number of revertant colonies TA100: 380
[3]; S9 Mix +, dose 556 µg/plate
  Number of revertant colonies TA100: 82
[3]; S9 Mix +, dose 1667 µg/plate
  Number of revertant colonies TA100: 94
[3]; S9 Mix +, dose 5000 µg/plate
  Number of revertant colonies TA100: 226
[3]; S9 Mix -, dose 2.3 µg/plate
  Number of revertant colonies TA100: 91
[3]; S9 Mix -, dose 6.9 µg/plate
  Number of revertant colonies TA100: 101
[3]; S9 Mix -, dose 21 µg/plate
  Number of revertant colonies TA100: 93
[3]; S9 Mix -, dose 62 µg/plate
  Number of revertant colonies TA100: 90
[3]; S9 Mix -, dose 185 µg/plate
  Number of revertant colonies TA100: 80
[3]; S9 Mix -, dose 556 µg/plate
  Number of revertant colonies TA100: 59
[3]; S9 Mix -, dose 1667 µg/plate
  Number of revertant colonies TA100: 61
[3]; S9 Mix -, dose 5000 µg/plate
  Number of revertant colonies TA100: 47
[3]; TA100 with S9 mix
  potential to induce reverse mutations: showed potential to induce reverse mutations
[4]; S9 Mix +, dose 556 µg/plate
  Number of revertant colonies TA1535: 5
[4]; S9 Mix +, dose 1667 µg/plate
  Number of revertant colonies TA1535: 4
[4]; S9 Mix -, dose 185 µg/plate
  Number of revertant colonies TA1535: 9
[4]; S9 Mix -, dose 556 µg/plate
  Number of revertant colonies TA1535: 0
[4]; S9 Mix -, dose 1667 µg/plate
  Number of revertant colonies TA1535: 0
[4]; TA1535 without S9 mix
  potential to induce reverse mutations: showed potential to induce reverse mutations
Escherichia coli WP2uvrA; S9 Mix +, dose 2.3 µg/plate
  Number of revertant colonies WP2uvrA: 34
Escherichia coli WP2uvrA; S9 Mix +, dose 6.9 µg/plate
  Number of revertant colonies WP2uvrA: 39
Escherichia coli WP2uvrA; S9 Mix +, dose 21 µg/plate
  Number of revertant colonies WP2uvrA: 22
Escherichia coli WP2uvrA; S9 Mix +, dose 62 µg/plate
  Number of revertant colonies WP2uvrA: 24
Escherichia coli WP2uvrA; S9 Mix +, dose 185 µg/plate
  Number of revertant colonies WP2uvrA: 16
Escherichia coli WP2uvrA; S9 Mix +, dose 556 µg/plate
  Number of revertant colonies WP2uvrA: 14
Escherichia coli WP2uvrA; S9 Mix +, dose 1667 µg/plate
  Number of revertant colonies WP2uvrA: 9
Escherichia coli WP2uvrA; S9 Mix +, dose 5000 µg/plate
  Number of revertant colonies WP2uvrA: 14
Escherichia coli WP2uvrA; S9 Mix -, dose 2.3 µg/plate
  Number of revertant colonies WP2uvrA: 26
Escherichia coli WP2uvrA; S9 Mix -, dose 6.9 µg/plate
  Number of revertant colonies WP2uvrA: 23
Escherichia coli WP2uvrA; S9 Mix -, dose 21 µg/plate
  Number of revertant colonies WP2uvrA: 16
Escherichia coli WP2uvrA; S9 Mix -, dose 62 µg/plate
  Number of revertant colonies WP2uvrA: 14
Escherichia coli WP2uvrA; S9 Mix -, dose 185 µg/plate
  Number of revertant colonies WP2uvrA: 15
Escherichia coli WP2uvrA; S9 Mix -, dose 556 µg/plate
  Number of revertant colonies WP2uvrA: 10
Escherichia coli WP2uvrA; S9 Mix -, dose 1667 µg/plate
  Number of revertant colonies WP2uvrA: 17
Escherichia coli WP2uvrA; S9 Mix -, dose 5000 µg/plate
  Number of revertant colonies WP2uvrA: 6
